Patent US7196074B2, “Methods of making, using and pharmaceutical formulations comprising 7α, 11β-dimethyl-17β-hydroxyestra-4, 14-dien-3-one and 17 esters thereof” (The United States of America as represented by the …, priority 2000, dated 2007)

Assays:
ventral prostate weight = test: Duration of androgenic activity after subcutaneous injection, ventral prostate weight over weeks in orchidectomized immature rats; assay type: in vivo, Sprague-Dawley rats; conditions: for ventral prostate weight over time after single subcutaneous injection (in words): 0.6 mg in 0.2 ml aqueous vehicle; for AUC of ventral prostate weight, times greater than for testosterone enanthate in oily carrier: active in aqueous vehicle versus testosterone enanthate in sesame oil/oily carrier, single subcutaneous 0.6 mg
Method: Immature (about 21-day-old) Sprague-Dawley rats were orchidectomized under anesthesia, and randomly assignee to groups of ten animals for each dose level of the active undergoing testing. Each active was administered by subcutaneous injection each day for seven days beginning on the date of the orchidectomy. The animals were sacrificed 24 hours after the last dose, and the ventral prostate and seminal vesicles were excised, cleaned of fat and connective tissue, blotted on moist filter paper and weighed to the nearest 0.1 mg. Regression analysis was performed by conventional methods using a PROPHET data management system. Ventral prostate weight was used as the endpoint because it is the sensitive organ to androgenic stimulation.
Except for testosterone enanthate, each active was formulated in two different carriers: (1) an aqueous suspension and (2) in sesame oil. Testosterone enanthate was formulated using the sesame oil carrier only, because it exists as a liquid at room temperature and could not therefore be formulated as an aqueous suspension.
(§1) The carrier used to provide the aqueous suspension was formulated as follows: 1 g benzyl alcohol, 0.5 g sodium carboxylethyl cellulose 50, 0.376 g disodium hydrogen phosphate dihydrate, 1.495 g sodium dihydrogen phosphate dihydrate, with water for injection (WFI) being added to bring volume of the carrier up to 100 ml.
Each formulation was prepared at a concentration of 0.6 mg/0.2 ml.
(§2) Immature (about 21-day-old) Sprague-Dawley rats were orchidectomized under anesthesia, and randomly assignee to groups of 40 or more. Animals received a single subcutaneous injection of 0.6 mg of each ester in 0.2 ml of an aqueous suspending carrier and/or oily carrier (10% ethanol/90% sesame oil or ethyl oleate) on the date of the orchidectomy. In cases where the ester was not solid at room temperature, 10% ethanol/sesame oil or ethyl oleate was used as the carrier. In this example, the carrier used to provide the aqueous suspension was formulated as follows: 1 g benzyl alcohol, 0.5 g sodium carboxylethyl cellulose 50, 0.376 g disodium hydrogen phosphate dihydrate, 1.495 g sodium dihydrogen phosphate dihydrate, with water for injection (WFI) being added to bring volume of the carrier up to 100 ml.
Five animals from each group were sacrificed at weekly or biweekly intervals, and the ventral prostate and seminal vesicles were excised, cleaned of fat and connective tissue, blotted on moist filter paper and weighed to the nearest 0.1 mg.
Ventral prostate weight was used as the endpoint because it is the sensitive organ to androgenic stimulation. Regression analysis was performed by conventional methods using the PROPHET data management system previously identified.
Immature (about 21-day-old) Sprague-Dawley rats were orchidectomized under anesthesia, and randomly assignee to groups of 40 or more. Animals received a single subcutaneous injection of 0.6 mg of the undecanoate in 0.2 ml of an aqueous suspending carrier and/or oily carrier (10% ethanol/90% sesame oil containing 5 mg/ml chlorobutanol as a preservative, or ethyloleate) on the date of the orchidectomy. The enanthate ester was formulated using the 10% ethanol/sesame oil or ethyloleate carrier as a first standard, with the 10% ethanol/sesame oil carrier used as a second standard.
as §1, with “In this example, the” for “The”
Immature (about 21-day-old) Sprague-Dawley rats were orchidectomized under anesthesia, and randomly assignee to groups of 40 or more. […] The enanthate ester was formulated using the 10% ethanol/sesame oil or ethyloleate carrier as a first standard, with the 10% ethanol/sesame oil carrier used as a second standard.

[1] = Serum levels of the free alcohol after single subcutaneous injection of ester; assay type: in vivo, Sprague-Dawley rats; conditions: single subcutaneous 0.6 mg suspended in aqueous carrier; 10 week observation period, FIG. 10
Method: as §2

Row | SMILES | ventral prostate weight over time after single subcutaneous injection (in words) (ventral prostate weight; listed as CDB-4521) | AUC of ventral prostate weight, times greater than for testosterone enanthate in oily carrier (ventral prostate weight) | area under the curve (AUC, trapezoidal rule) of ventral prostate weight (ventral prostate weight; single subcutaneous 0.6 mg in aqueous vehicle, 10 week period, FIG. 15) [mg-weeks] | serum levels of the free alcohol (7α,11β-dimethyl-19-nortestosterone) [1] | ventral prostate weight over time after single subcutaneous injection (in words) (ventral prostate weight) | activity in potency and duration after subcutaneous injection (in words), FIG. 5 (ventral prostate weight; 0.6 mg/0.2 ml, aqueous suspension or sesame oil, ventral prostate weight) | AUC of ventral prostate weight over the 10-week period, rank among bucyclate esters (ventral prostate weight; single subcutaneous 0.6 mg suspended in aqueous carrier, FIG. 9)
1 | CCCCCCCCCCC(=O)O[C@H]1CC[C@H]2[C@H]3[C@H]([C@@H](C)C[C@]12C)[C@H]1CCC(=O)C=C1C[C@H]3C [Compound II, 7α,11β-dimethyl-17β-hydroxyestr-4-en-3-one 17-undecanoate] | most dramatic increases and maintenance of ventral prostate weight | about 3 times | 1817 |  |  |  | 
2 | CCCC[C@H]1CC[C@H](C(=O)O[C@H]2CC[C@H]3[C@H]4[C@H]([C@@H](C)C[C@]23C)[C@H]2CCC(=O)C=C2C[C@H]4C)CC1 (relative stereo) [Compound I, 7α,11β-Dimethyl-17β-hydroxy-4-estren-3-one 17β-trans-4-n-butylcyclohexane carboxylate] |  | about 3 times |  | highest levels of the free alcohol | most dramatic increase and maintenance of ventral prostate weight | far exceeds the activity exhibited by the comparative esters | greatest AUC
